In ChEMBL document CHEMBL1132817 (Bioorg Med Chem Lett, 2000):

Assays:
[1] = target: T1, M-phase inducer phosphatase 2 (Homo sapiens, UniProt P30305); experiment: The compound was tested for its inhibitory activity against Cell division cycle 25B
T1 sequence (P30305 whole entry): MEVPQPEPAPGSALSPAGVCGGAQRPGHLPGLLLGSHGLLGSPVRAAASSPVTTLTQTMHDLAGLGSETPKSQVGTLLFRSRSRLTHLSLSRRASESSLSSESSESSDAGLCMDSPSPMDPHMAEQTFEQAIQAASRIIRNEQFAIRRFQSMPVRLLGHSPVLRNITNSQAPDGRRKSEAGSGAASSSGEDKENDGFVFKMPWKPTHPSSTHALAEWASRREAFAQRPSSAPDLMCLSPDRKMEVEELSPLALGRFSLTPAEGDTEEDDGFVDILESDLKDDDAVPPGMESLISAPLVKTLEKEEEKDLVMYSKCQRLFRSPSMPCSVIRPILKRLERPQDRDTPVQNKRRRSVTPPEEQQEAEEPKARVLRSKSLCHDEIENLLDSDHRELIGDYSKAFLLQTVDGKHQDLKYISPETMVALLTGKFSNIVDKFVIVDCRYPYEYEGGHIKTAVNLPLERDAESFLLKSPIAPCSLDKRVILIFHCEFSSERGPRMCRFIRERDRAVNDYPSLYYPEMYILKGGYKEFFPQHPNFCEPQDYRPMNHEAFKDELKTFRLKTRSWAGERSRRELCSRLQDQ

[2] = target: T2, M-phase inducer phosphatase 1 (Homo sapiens, UniProt P30304); experiment: The compound was tested for its inhibitory activity against Cell division cycle 25A
T2 sequence (P30304 whole entry): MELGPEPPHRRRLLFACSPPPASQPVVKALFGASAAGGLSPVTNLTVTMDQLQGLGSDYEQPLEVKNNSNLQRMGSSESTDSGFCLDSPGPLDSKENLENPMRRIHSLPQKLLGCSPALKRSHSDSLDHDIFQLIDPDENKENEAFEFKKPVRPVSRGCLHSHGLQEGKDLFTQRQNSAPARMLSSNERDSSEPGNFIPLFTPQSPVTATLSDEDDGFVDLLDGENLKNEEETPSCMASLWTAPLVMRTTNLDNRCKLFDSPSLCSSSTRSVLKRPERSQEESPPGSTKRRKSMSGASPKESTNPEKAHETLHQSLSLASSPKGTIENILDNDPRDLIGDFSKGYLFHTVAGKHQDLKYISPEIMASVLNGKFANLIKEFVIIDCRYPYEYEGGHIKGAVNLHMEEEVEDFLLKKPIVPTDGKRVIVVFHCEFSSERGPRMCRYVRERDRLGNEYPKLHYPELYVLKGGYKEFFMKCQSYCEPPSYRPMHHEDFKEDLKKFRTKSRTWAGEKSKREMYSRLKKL

SBC-5 = experiment: The compound was tested for its inhibitory activity against SBC-5 human lung cancer cell line; assay type: functional, cell-based
HL-60 = experiment: The compound was tested for its inhibitory activity against HL-60 human leukemia cell line; assay type: functional, cell-based

| Compound | IC50 [1] | IC50 [2] | IC50 (SBC-5) | IC50 (HL-60) |
| --- | --- | --- | --- | --- |
| C=C(C)CCC[C@]1(C)CCC[C@@H]2C1=CC[C@@H](C)[C@@H]2C[C@H](O)C1=CC(=O)OC1O (some centres undefined) | 27 µM | 15 µM | 4.4 µM |  |
| C=C(C)CCC[C@]1(C)CCC[C@@H]2C1=CC[C@@H](C)[C@]2(C)C[C@H](O)C1=CC(=O)OC1O (some centres undefined) | 18 µM |  | 1.3 µM | 1 µM |
| CC1(CC(O)C2=CC(=O)OC2O)CCCCC1 (centres undefined) | > 300 µM | > 300 µM | 12 µM |  |
| C=C(C)CCC[C@@]1(C)CCC[C@H]2C1=CC[C@H](C)[C@]2(C)C[C@H](O)C1=CC(=O)O[C@@H]1O (stereo in doubt) | 19 µM |  | 16 µM |  |
| C=C(C)CCC[C@]1(C)CCC[C@@H]2C1=CC[C@@H](C)[C@@]2(C)C[C@@H](O)C1=CC(=O)O[C@H]1O [DYSIDIOLIDE] | 87 µM |  | 5.4 µM | 7.1 µM |
